These are literature values, as cited in patent US11839666B2, “Oral care article comprising a hydrophobic delivery carrier and solid hydrophilic particles comprising an agent” (The Procter & Gamble Company, priority 2020, dated 2023).

Where two headings read alike, the source gives them in different places.

For this series the following is noted: at 20 C.

With `NC(N)=O.OO` [Urea Hydrogen Peroxide Adduct], the Solubility in water is given as 800 grams per liter (per Safety Data Sheet from supplier) and 80 parts per 100 parts of water (restated from Safety Data Sheet value).
